This note sets out measurements from patent publication US6080871A, “Sulfonamides and sulfamides as H3 receptor antagonists” (James Black Foundation Limited, priority 1996, dated 2000).

Bounds are passed on as bounds.

The target of one assay is T1, H3 receptor (Cavia porcellus, UniProt Q9JI35).
T1 construct: the longitudinal muscle layer and adhering myenteric plexus was teased away; from tissue; host or cells: ileal longitudinal muscle with adhering myenteric plexus of male Dunkin-Hartley guinea pigs
T1 sequence (Q9JI35 whole entry): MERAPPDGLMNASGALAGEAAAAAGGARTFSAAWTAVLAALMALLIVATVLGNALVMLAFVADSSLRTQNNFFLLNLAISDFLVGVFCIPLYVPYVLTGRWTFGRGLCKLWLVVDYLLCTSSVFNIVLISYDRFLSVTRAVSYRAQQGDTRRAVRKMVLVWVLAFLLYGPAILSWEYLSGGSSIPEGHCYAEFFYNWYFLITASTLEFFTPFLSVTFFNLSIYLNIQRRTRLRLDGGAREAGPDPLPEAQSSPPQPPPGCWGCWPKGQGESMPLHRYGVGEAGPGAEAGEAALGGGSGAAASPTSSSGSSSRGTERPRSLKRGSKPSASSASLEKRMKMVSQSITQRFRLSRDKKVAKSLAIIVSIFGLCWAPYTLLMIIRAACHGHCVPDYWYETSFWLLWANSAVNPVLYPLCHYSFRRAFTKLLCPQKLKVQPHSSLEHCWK
The experiment in a line: H3 receptor bioassay (functional assay), guinea pig ileal longitudinal muscle myenteric plexus. Format: cell-based. As to conditions: antagonism of R-(α)-methylhistamine E/[A] curve, Schild's methods, electrically stimulated guinea pig ileum, variance ±0.15 log units; for Kb: read-out: pKB (functional assay) (converted). The protocol:
The biological activity of the compounds of the examples was measured using the ileal longitudinal muscle, myenteric plexus assay described by Paton and Aboo Zar (J. Physiol. 194, 13-33 (1968)). Male Dunkin-Hartley guinea pigs (250-300 g) were employed. Briefly, a 50 cm portion of ileum proximal to the caecum was removed, after discarding the terminal 20 cm. Ileal segments (3 cm) were cleaned by passing Krebs-Henseleit buffer containing 3 μM mepyramine gently through the ileum using a Pasteur pipette (size: 13.8 cm length, 0.65 cm diameter). To avoid unnecessary damage to the tissue, Krebs-Henseleit buffer was passed through the ileal segment, while it was lying horizontally on a petri dish. Therefore, the ileum was not over-distended and the buffer flowed through with ease. Each segment was then passed over a Pasteur pipette and the longitudinal muscle layer and adhering myenteric plexus was teased away using moist cotton wool, by stroking tangentially away from the mesenteric attachment. The tissues were suspended in 20 ml organ baths containing Krebs-Henseleit buffer at 37±1° C. and gassed with […]. The tissues were ligated to two parallel stainless steel wires, situated between two platinum electrodes (0.76 cm length, 0.06 cm diameter). All measurements were recorded isometrically (Grass FTO3 transducer). Following an initial loading tension of 1 g, the tissues were stimulated with electrical pulses at a frequency of 0.1 Hz and a pulse duration of 0.5msec, as described by Kosterlitz & Watt (1968). Initially, the tissues were stimulated at supramaximal (1.3 fold times maximal) voltage for a period of 30 min and then the tissues were washed and re-stimulated. A "sighter dose" of the selective histamine H3 -receptor agonist, R-(α)-methylhistamine(0.3 μM) (Arrang et al., 1987), was administered. Upon generation of response, the "sighter dose" was removed from the tissues by "washout" (6 washes over 60 min) and during this period the electrical stimulation was switched off. The tissues were then re-stimulated and allowed to stabilise prior to the addition of drug treatments, which were allocated on a randomised block basis to the organ baths. Following the incubation period, a single cumulative E/[A] curve was obtained. The experimental E/[A] curve data was expressed as the percentage inhibition of the peak height of electrically-stimulated contraction. Antagonist affinity values were calculated from the degree of rightward shift of the R-(α)-methylhistamine E/[A] curves using Schild's methods (Arunlatcshama & Schild, 1949).
(§1) Typical variance in the functional assay is ±0.15 log units. Typical variance in the binding assay is ±0.12 log units. This means that if the discrepancy between the two assays is greater than about 0.5 log units, then this difference on average is significant.

Another assay addresses T2, Histamine H3 (Cavia porcellus, UniProt Q9JI35).
T2 construct: ileum longitudinal muscle myenteric plexus membranes; from tissue; host or cells: ileum longitudinal muscle myenteric plexus membranes of male Dunkin Hartley guinea pigs
The experiment in a line: Histamine H3 radioligand binding assay, [3H]-R-α-methylhistamine, guinea pig ileum longitudinal muscle myenteric plexus membranes. The note with it: 3 nM [3H]-R-α-methylhistamine, 165 min, 21±3° C., Cheng Prusoff, variance ±0.12 log units; for Ki: read-out: pK1 (binding assay) (converted). The protocol:
Histamine H3 Radioligand Binding Assay
Male Dunkin Hartley guinea pigs (200-300 g) were used. The small intestine was rapidly removed (cut ~5 cm from caecum and 5 cm from stomach) and placed in ice-cold 20 mM Hepes-NaOH buffer (pH7.4 at 21±3° C.). The tissue was cut into ~10 cm segments, flushed through with ice-cold 20 mM Hepes-NaOH buffer and placed in a beaker containing fresh buffer at 4° C. 10 cm segments of ileum were threaded onto a glass pipette and the longitudinal muscle myenteric plexus was peeled away from the circular muscle using damp cotton-wool. Longitudinal muscle myenteric plexus was immediately placed in ice-cold Viaspan® solution (~100 ml for tissue from 3 guinea pigs) and placed in the refrigerator for 24 hours.
Pre-soaked tissue was weighed and minced with scissors. The tissue was then homogenised in Viaspan® using a polytron (Kinematica AG; PT-DA 3020/2TS, 3×~1-2 s). 50 ml of 500 mM Tris HCl (pH6.9 at 21±3° C.) was added to the tissue and the mixture centrifuged at 39,800×g for 12 min at 4° C. The supernatant was discarded and rehomogenised in 100 ml ice-cold 20 mM Hepes-NaOH buffer (pH7.4 at 21±3° C.) using a teflon-in-glass homogeniser (setting 10; 3×). The homogenate was recentrifuged at 39,800×g and the pellet resuspended in 20 mM Hepes-NaOH buffer (pH7.4 at 21±3° C.), to a tissue concentration of 50 mg.ml^-1, using a polytron (Brinkman, PT10, 3×~1 s).
Guinea pig ileum longitudinal muscle myenteric plexus membranes (400 μl) were incubated for 165 min at 21±3° C. in a final volume of 500 μl with 20 mM Hepes-NaOH buffer containing [^3 H]-R-α-methylhistamine (50 μl; 3 nM) and competing compound. Total and non-specific binding of [^3 H]-R-α-methylhistamine were defined using 50 μl of buffer and 50 μl of 10 μM thioperamide, respectively. The assay was terminated by rapid filtration through Whatman GF/B filters, presoaked (2 hr) in 0. 1% polyethyleneimine,using a Brandell Cell Harvester. The filters were washed (3×3 ml) with ice-cold 50 mM Tris-HCl (pH6.9 at 21±3° C.), transferred into scintillation vials, 5 ml liquid scintillation cocktail was added and after 4 hours the bound radioactivity was determined by counting (4 min) in a Beckman liquid scintillation counter.
Data are analysed using GraphPad prism and the general equation for a competition curve with variable Hill slope (nH).
Y=Non-specific binding+(Total binding-Non-specific binding)/1+10^((logIC.sbsp.50^-X).n.sbsp.H^)
X is the log concentration of competing compound, Y is the binding obtained at each concentration of X, pIC50 is the concentration of the competitor required to compete for half of the specific binding.
The IC50 is converted to the K1 using the Cheng Prusoff equation, […]
IC50 is the concentration of competitor required to compete for half the specific binding, L is the radioligand concentration used, KD is the equilibrium dissociation constant for the radioligand determined by saturation experiments.
as §1

T2 sequence (Q9JI35 whole entry): as above

As for `O=S(=O)(NCCCCc1c[nH]cn1)NCc1ccccc1Cl` [Example 43, N-[4-(4(5)-Imidazoyl)butyl]-N'-(2-chlorophenyl)methyl-sulfamide], the Kb on H3 receptor was 380 nM. In addition, the Ki at Histamine H3 is 56.2 nM.

With `O=S(=O)(NCCCCCCc1c[nH]cn1)c1ccc2ccccc2c1` [Example 8], the Kb at H3 receptor was 77.6 nM. Besides, the “pK1 (binding assay)” value on Histamine H3 is given as 7.49.

As for `O=S(=O)(Cc1ccc(Cl)cc1)NCCCCCCCCc1c[nH]cn1` [Example 33, N-[8-(4(5)-Imidazoyl)octyl]-(4-chlorophenyl)methanesulfonamide], on H3 receptor, the Kb was 229 nM. The “pK1 (binding assay)” value on Histamine H3 is 7.27.

`O=S(=O)(NCCCCCCc1c[nH]cn1)NCc1ccc(I)cc1` [Example 61, N-[6-(4(5)-Imidazoyl)hexyl]-N'-(4-iodophenyl)methyl-sulfamide]: the “pKB (functional assay)” value on H3 receptor stood at 8.62. Also, the “pK1 (binding assay)” value on Histamine H3 worked out at 8.46.

Regarding `O=S(=O)(NCCCCCCc1c[nH]cn1)NCc1ccc(-c2ccccc2)cc1` [Example 62, N-[6-(4(5)-Imidazoyl)hexyl]-N'-(4biphenyl)methyl-sulfamide], at H3 receptor, the Kb is 7.41 nM. For the same compound, the Ki on Histamine H3 was 5.75 nM.

Regarding `O=S(=O)(NCCCCCCCCc1c[nH]cn1)c1ccc2ccccc2c1` [Example 30, N-[8-(4(5)-Imidazoyl)octyl]-2-naphthalenesulfonamide], the Kb at H3 receptor is 240 nM. Further, the “pK1 (binding assay)” value on Histamine H3 was found to be 6.97.

`O=S(=O)(NCCCCc1c[nH]cn1)NCc1ccc2ccccc2c1` [Example 50, N-[4-(4(5)-Imidazoyl)butyl]-N'-2-naphthylmethyl-sulfamide]: the Kb at H3 receptor was 18.6 nM. The Ki at Histamine H3 was 16.6 nM.

Regarding `O=S(=O)(NCCCCc1c[nH]cn1)NCc1ccc(-c2ccccc2)cc1` [Example 49, N-[4-(4(5)-Imidazoyl)butyl]-N'-(4-biphenyl)methyl-sulfamide], the Kb at H3 receptor is 4.79 nM. In addition, the “pK1 (binding assay)” value at Histamine H3 came out at 8.12.

As to `O=S(=O)(NCCCc1c[nH]cn1)NCc1ccc(Cl)cc1` [Example 14, N-[3-(4(5)-Imidazoyl)propyl]-N'-(4-chlorophenyl)methyl-sulfamide], the Kb on H3 receptor is 91.2 nM. Moreover, on Histamine H3, the “pK1 (binding assay)” value was 7.28.

In the case of `O=S(=O)(NCCCCc1c[nH]cn1)NCc1ccc(I)cc1` [Example 44, N-[4-(4(5)-Imidazoyl)butyl]-N'-(4-iodophenyl)methyl-sulfamide], on H3 receptor, the Kb is 3.24 nM. On Histamine H3, the “pK1 (binding assay)” value is 8.68.

As to `O=S(=O)(NCCCCc1c[nH]cn1)NCc1ccc(F)cc1` [Example 46, N-[4-(4(5)-Imidazoyl)butyl]-N'-(4-fluorophenyl)methyl-sulfamide], on H3 receptor, the Kb was 20 nM. Besides, the “pK1 (binding assay)” value on Histamine H3 is 7.84.

`O=S(=O)(/C=C/c1ccccc1)NCCc1c[nH]cn1` [Example 20, (E)-N-[2-(4(5)-Imidazoyl)ethyl]-2-phenylethenesulfonamide]: the Kb at H3 receptor is above 3160 nM. Also, the “pK1 (binding assay)” value on Histamine H3 is reported as 7.26.

For `O=S(=O)(CCC1CCCCC1)NCCc1c[nH]cn1` [Example 23, N-[2-(4(5)-Imidazoyl)ethyl]-2-cyclohexylethanesulfonamide], on H3 receptor, the Kb is 1350 nM. The “pK1 (binding assay)” value at Histamine H3 is recorded as 7.55.

For `CN(Cc1ccc(Cl)cc1)S(=O)(=O)NCCCCc1c[nH]cn1` [Example 70], the Kb on H3 receptor was 15.8 nM. In addition, on Histamine H3, the Ki is 11.2 nM.

For `O=S(=O)(NCCCCc1c[nH]cn1)NCCc1ccc(Cl)cc1` [Example 57, N-[4-(4(5)-Imidazoyl)butyl]-N'-2-(4-chlorophenyl)ethyl-sulfamide], the Kb on H3 receptor was 11 nM. In addition, the Ki on Histamine H3 is 14.5 nM.

Regarding `O=S(=O)(Cc1ccc2ccccc2c1)NCCc1c[nH]cn1` [Example 19, N-[2-(4(5)-Imidazoyl)ethyl]-2-naphthylmethanesulfonamide], the Kb on H3 receptor is above 10000 nM. Besides, the Ki at Histamine H3 was 1120 nM.

Turning to `O=S(=O)(Cc1ccc(Cl)cc1)NCCCCc1c[nH]cn1` [Example 10, N-[4-(4(5)-Imidazoyl)butyl]-(4-chlorophenyl)methanesulfonamide], on H3 receptor, the Kb was 2.4 nM. Moreover, the “pK1 (binding assay)” value on Histamine H3 worked out at 8.53.

Take `O=S(=O)(NCCCCc1c[nH]cn1)NCc1ccc(Cl)cc1` [Example 13, N-[4-(4(5)-Imidazoyl)butyl]-N'-(4-chlorophenyl)methyl-sulfamide]: at H3 receptor, the Kb is 2.09 nM. Also, the “pK1 (binding assay)” value on Histamine H3 is on record as 8.56.

Consider `O=S(=O)(NCCCCCc1c[nH]cn1)c1ccc2ccccc2c1` [Example 6, N-[5-(4(5)-Imidazoyl)pentyl]-2-naphthalenesulfonamide], for which the Kb on H3 receptor is 110 nM. Also, the “pK1 (binding assay)” value at Histamine H3 came to 7.50.

In the case of `O=S(=O)(NCc1ccc(Br)cc1)N(CCCCc1c[nH]cn1)Cc1ccc(Br)cc1` [Example 67, N,N'-Di-[(4-bromophenyl)methyl]-N-[4-(4(5)-imidazoyl)butyl]-sulfamide], the Kb at H3 receptor was 603 nM. The Ki at Histamine H3 is 141 nM.

Consider `O=S(=O)(NCCCCCc1c[nH]cn1)NCc1ccc(F)cc1` [Example 65, N-[5-(4(5)-Imidazoyl)pentyl]-N'-(4-fluorophenyl)methyl-sulfamide], for which the Kb at H3 receptor was 47.9 nM. In addition, the Ki at Histamine H3 was 10.5 nM.

With `O=S(=O)(NCCc1c[nH]cn1)c1ccc2ccccc2c1` [Example 1, N-[2-(4(5)-Imidazoyl)ethyl]-2-naphthalenesulfonamide], the Kb on H3 receptor is 200 nM. The “pK1 (binding assay)” value at Histamine H3 is given as 7.77.

Consider `O=S(=O)(Cc1ccc(Cl)cc1)NCCCCCc1c[nH]cn1` [Example 9, N-[5-(4(5)-Imidazoyl)pentyl]-(4-chlorophenyl)methanesulfonamide], for which the Kb at H3 receptor is 46.8 nM. Besides, on Histamine H3, the “pK1 (binding assay)” value was determined as 7.94.

For the compound `O=S(=O)(NCCCCCc1c[nH]cn1)NCc1ccc(Cl)cc1` [Example 12, N-[5-(4(5)-Imidazoyl)pentyl]-N'-(4-chlorophenyl)methyl-sulfamide], at H3 receptor, the Kb was 6.31 nM. In addition, on Histamine H3, the “pK1 (binding assay)” value is given as 8.23.
